{"source": "patent US8192962B2", "about": "“Processes for detecting toxic substances” (Daikin Industries, Ltd., priority 2001, dated 2012)", "tested_on": "Transport facilitation protein genes", "experiment": "DNA chip mRNA expression in yeast, transport facilitation protein genes (Table 5)", "type": "cell-based, Saccharomyces cerevisiae S288C", "in_short": "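Cells were grown at 25° C. in YPD, treated at logarithmic phase for 2 h with a chemical at a concentration inhibiting growth but not causing death, and compared with untreated cultures. Labeled cDNA was hybridized to a DNA chip carrying all yeast genes, and the expression ratio was taken from scanner fluorescence.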", "data": [{"smiles": "CN(C)C(=S)SSC(=S)N(C)C", "note": "[(10), Tetramethylthiuram disulfide]", "values": [{"measurement": "The level of expressed mRNA in the presence of chemical substance/The level of expressed mRNA in the absence of chemical substance", "setting": "yeast gene YBL030C", "result": 0.9}, {"measurement": "The level of expressed mRNA in the presence of chemical substance/The level of expressed mRNA in the absence of chemical substance", "setting": "yeast gene YBL099W", "result": 0.7}, {"measurement": "The level of expressed mRNA in the presence of chemical substance/The level of expressed mRNA in the absence of chemical substance", "setting": "yeast gene YBR052C", "result": 2.5}, {"measurement": "The level of expressed mRNA in the presence of chemical substance/The level of expressed mRNA in the absence of chemical substance", "setting": "yeast gene YBR068C", "result": 2.5}, {"measurement": "The level of expressed mRNA in the presence of chemical substance/The level of expressed mRNA in the absence of chemical substance", "setting": "yeast gene YBR127C", "result": 1.3}, {"measurement": "The level of expressed mRNA in the presence of chemical substance/The level of expressed mRNA in the absence of chemical substance", "setting": "yeast gene YBR132C", "result": 1.1}, {"measurement": "The level of expressed mRNA in the presence of chemical substance/The level of expressed mRNA in the absence of chemical substance", "setting": "yeast gene YBR207W", "result": 2.2}, {"measurement": "The level of expressed mRNA in the presence of chemical substance/The level of expressed mRNA in the absence of chemical substance", "setting": "yeast gene YBR293W", "result": 2.4}, {"measurement": "The level of expressed mRNA in the presence of chemical substance/The level of expressed mRNA in the absence of chemical substance", "setting": "yeast gene YBR294W", "result": 5.2}, {"measurement": "The level of expressed mRNA in the presence of chemical substance/The level of expressed mRNA in the absence of chemical substance", "setting": "yeast gene YBR295W", "result": 3.3}, {"measurement": "The level of expressed mRNA in the presence of chemical substance/The level of expressed mRNA in the absence of chemical substance", "setting": "yeast gene YBR298C", "result": 1.1}, {"measurement": "The level of expressed mRNA in the presence of chemical substance/The level of expressed mRNA in the absence of chemical substance", "setting": "yeast gene YCL025C", "result": 0.3}, {"measurement": "The level of expressed mRNA in the presence of chemical substance/The level of expressed mRNA in the absence of chemical substance", "setting": "yeast gene YCL038C", "result": 0.9}, {"measurement": "The level of expressed mRNA in the presence of chemical substance/The level of expressed mRNA in the absence of chemical substance", "setting": "yeast gene YCR024C-A", "result": 0.7}, {"measurement": "The level of expressed mRNA in the presence of chemical substance/The level of expressed mRNA in the absence of chemical substance", "setting": "yeast gene YCR037C", "result": 0.6}, {"measurement": "The level of expressed mRNA in the presence of chemical substance/The level of expressed mRNA in the absence of chemical substance", "setting": "yeast gene YCR098C", "result": 2.4}, {"measurement": "The level of expressed mRNA in the presence of chemical substance/The level of expressed mRNA in the absence of chemical substance", "setting": "yeast gene YDL128W", "result": 0.7}, {"measurement": "The level of expressed mRNA in the presence of chemical substance/The level of expressed mRNA in the absence of chemical substance", "setting": "yeast gene YDL198C", "result": 2.7}, {"measurement": "The level of expressed mRNA in the presence of chemical substance/The level of expressed mRNA in the absence of chemical substance", "setting": "yeast gene YDL206W", "result": 1.5}, {"measurement": "The level of expressed mRNA in the presence of chemical substance/The level of expressed mRNA in the absence of chemical substance", "setting": "yeast gene YDL210W", "result": 1.4}, {"measurement": "The level of expressed mRNA in the presence of chemical substance/The level of expressed mRNA in the absence of chemical substance", "setting": "yeast gene YDL245C", "result": 2.8}, {"measurement": "The level of expressed mRNA in the presence of chemical substance/The level of expressed mRNA in the absence of chemical substance", "setting": "yeast gene YDR038C", "result": 0.9}, {"measurement": "The level of expressed mRNA in the presence of chemical substance/The level of expressed mRNA in the absence of chemical substance", "setting": "yeast gene YDR039C", "result": 1.0}, {"measurement": "The level of expressed mRNA in the presence of chemical substance/The level of expressed mRNA in the absence of chemical substance", "setting": "yeast gene YDR086C", "result": 0.8}, {"measurement": "The level of expressed mRNA in the presence of chemical substance/The level of expressed mRNA in the absence of chemical substance", "setting": "yeast gene YDR270W", "result": 3.6}, {"measurement": "The level of expressed mRNA in the presence of chemical substance/The level of expressed mRNA in the absence of chemical substance", "setting": "yeast gene YDR298C", "result": 1.6}, {"measurement": "The level of expressed mRNA in the presence of chemical substance/The level of expressed mRNA in the absence of chemical substance", "setting": "yeast gene YDR342C", "result": 2.2}, {"measurement": "The level of expressed mRNA in the presence of chemical substance/The level of expressed mRNA in the absence of chemical substance", "setting": "yeast gene YDR343C", "result": 2.1}, {"measurement": "The level of expressed mRNA in the presence of chemical substance/The level of expressed mRNA in the absence of chemical substance", "setting": "yeast gene YDR345C", "result": 1.1}, {"measurement": "The level of expressed mRNA in the presence of chemical substance/The level of expressed mRNA in the absence of chemical substance", "setting": "yeast gene YDR387C", "result": 2.0}, {"measurement": "The level of expressed mRNA in the presence of chemical substance/The level of expressed mRNA in the absence of chemical substance", "setting": "yeast gene YDR497C", "result": 0.8}, {"measurement": "The level of expressed mRNA in the presence of chemical substance/The level of expressed mRNA in the absence of chemical substance", "setting": "yeast gene YEL027W", "result": 1.1}, {"measurement": "The level of expressed mRNA in the presence of chemical substance/The level of expressed mRNA in the absence of chemical substance", "setting": "yeast gene YEL063C", "result": 1.7}, {"measurement": "The level of expressed mRNA in the presence of chemical substance/The level of expressed mRNA in the absence of chemical substance", "setting": "yeast gene YEL065W", "result": 4.9}, {"measurement": "The level of expressed mRNA in the presence of chemical substance/The level of expressed mRNA in the absence of chemical substance", "setting": "yeast gene YER053C", "result": 3.9}, {"measurement": "The level of expressed mRNA in the presence of chemical substance/The level of expressed mRNA in the absence of chemical substance", "setting": "yeast gene YER119C", "result": 1.2}, {"measurement": "The level of expressed mRNA in the presence of chemical substance/The level of expressed mRNA in the absence of chemical substance", "setting": "yeast gene YFL011W", "result": 1.6}, {"measurement": "The level of expressed mRNA in the presence of chemical substance/The level of expressed mRNA in the absence of chemical substance", "setting": "yeast gene YFL041W", "result": 5.1}, {"measurement": "The level of expressed mRNA in the presence of chemical substance/The level of expressed mRNA in the absence of chemical substance", "setting": "yeast gene YFL050C", "result": 1.6}, {"measurement": "The level of expressed mRNA in the presence of chemical substance/The level of expressed mRNA in the absence of chemical substance", "setting": "yeast gene YFL054C", "result": 2.3}, {"measurement": "The level of expressed mRNA in the presence of chemical substance/The level of expressed mRNA in the absence of chemical substance", "setting": "yeast gene YFL055W", "result": 6.5}, {"measurement": "The level of expressed mRNA in the presence of chemical substance/The level of expressed mRNA in the absence of chemical substance", "setting": "yeast gene YGL006W", "result": 1.2}, {"measurement": "The level of expressed mRNA in the presence of chemical substance/The level of expressed mRNA in the absence of chemical substance", "setting": "yeast gene YGL008C", "result": 0.4}, {"measurement": "The level of expressed mRNA in the presence of chemical substance/The level of expressed mRNA in the absence of chemical substance", "setting": "yeast gene YGL104C", "result": 2.1}, {"measurement": "The level of expressed mRNA in the presence of chemical substance/The level of expressed mRNA in the absence of chemical substance", "setting": "yeast gene YGL167C", "result": 1.1}, {"measurement": "The level of expressed mRNA in the presence of chemical substance/The level of expressed mRNA in the absence of chemical substance", "setting": "yeast gene YGL255W", "result": 5.0}, {"measurement": "The level of expressed mRNA in the presence of chemical substance/The level of expressed mRNA in the absence of chemical substance", "setting": "yeast gene YGR055W", "result": 2.4}, {"measurement": "The level of expressed mRNA in the presence of chemical substance/The level of expressed mRNA in the absence of chemical substance", "setting": "yeast gene YGR065C", "result": 2.6}, {"measurement": "The level of expressed mRNA in the presence of chemical substance/The level of expressed mRNA in the absence of chemical substance", "setting": "yeast gene YGR082W", "result": 0.9}, {"measurement": "The level of expressed mRNA in the presence of chemical substance/The level of expressed mRNA in the absence of chemical substance", "setting": "yeast gene YGR096W", "result": 0.8}, {"measurement": "The level of expressed mRNA in the presence of chemical substance/The level of expressed mRNA in the absence of chemical substance", "setting": "yeast gene YGR138C", "result": 1.0}, {"measurement": "The level of expressed mRNA in the presence of chemical substance/The level of expressed mRNA in the absence of chemical substance", "setting": "yeast gene YGR191W", "result": 0.7}, {"measurement": "The level of expressed mRNA in the presence of chemical substance/The level of expressed mRNA in the absence of chemical substance", "setting": "yeast gene YGR197C", "result": 3.2}, {"measurement": "The level of expressed mRNA in the presence of chemical substance/The level of expressed mRNA in the absence of chemical substance", "setting": "yeast gene YGR224W", "result": 0.9}, {"measurement": "The level of expressed mRNA in the presence of chemical substance/The level of expressed mRNA in the absence of chemical substance", "setting": "yeast gene YGR260W", "result": 0.4}]}]}
